{"source": "patent US8420852B2", "about": "“Phospholipase A2 inhibitors and their use in treating neurological injury and disease” (The Regents of the University of California, priority 2007, dated 2013)", "key": {"[1]": {"test_system": "SJL/J mice induced with EAE", "experiment": "EAE model of multiple sclerosis, clinical score", "type": "in vivo, mouse"}, "C57BL/6 mice with EAE": {"test_system": "C57BL/6 mice with EAE", "settings": "C57BL/6 mouse strain, previously shown; cited from earlier work"}}, "note": "Entries after “also recorded” stand apart in the source; their conditions may differ."}
{"smiles": "CCCCCCCCCCCCCCC(=O)C(=O)NCCCC(=O)O", "note": "[AX006, 4-(2-oxohexadecanoyl)amino butyric acid]", "values": [{"measurement": "clinical disability score at day 40", "setting": "[1]; treatment before onset from day 5/6, stopped day 27, vehicle 2.4", "value": 1.6}, {"measurement": "clinical score at day 18", "setting": "[1]; treatment before onset from day 5/6, vehicle grade 2, 5-point scale", "value": 0.5}, {"measurement": "clinical course of EAE vs vehicle control", "setting": "[1]; treatment before onset of symptoms, from day 5/6 after immunization, daily for 3 weeks", "value": "significant during the first paralytic episode; also recorded: significant reduction of disease severity"}]}
{"smiles": "CCCCC/C=C\\C/C=C\\C/C=C\\C/C=C\\CCCC(=O)C(F)(F)F", "note": "[AACOCF3, arachidonyltrifluoromethyketone]", "values": [{"measurement": "onset and progression of EAE", "setting": "C57BL/6 mice with EAE", "value": "markedly reduce the onset and progression of the disease"}]}
